According to patent publication US6750222B2, “Substituted phenyl derivatives” (Bayer CropScience GmbH, priority 2001, dated 2004):
One block for each compound: values may come before it.

Experiments:
[1] = system: Sinapis alba, Chrysanthemum segetum, Avena sativa, Stellaria media, Echinochloa crus-galli, Lolium multiflorum, Setaria spp., Abutilon theophrasti, Amaranthus …; test: Pre-emergence effect on weeds (greenhouse pot test); assay type: in vivo, monocotyledonous and dicotyledonous weed plants; settings: application rate of 2 kg and less of active substance per hectare; scored visually after 3 to 4 weeks by comparison with untreated controls
Description: 1. Pre-Emergence Effect on Weeds
Seeds or rhizome pieces of monocotyledonous and dicotyledonous weed plants were placed in sandy loam soil in cardboard pots and covered with soil. The compounds according to the invention which were formulated in the form of wettable powders or emulsion concentrates were then applied to the surface of the soil cover in the form of aqueous suspensions or emulsions at an application rate of 600 to 800 l of water/ha (converted), in various dosages.
After the treatment, the pots were placed in a greenhouse and kept under good growth conditions for the weeds. After the test plants had emerged, the damage to the plants or the negative effect on the emergence was scored visually after a test period of 3 to 4 weeks by comparison with untreated controls. As shown by the test results, compounds according to the invention have good herbicidal pre-emergence activity against a broad spectrum of weed grasses and broad-leafed weeds.

[2] = system: Sinapis alba, Echinochloa crus-galli, Lolium multiflorum, Chrysanthemum segetum, Avena sativa, Stellaria media, Setaria spp., Abutilon theophrasti, Amaranthus …; test: Post-emergence effect on weeds (greenhouse pot test); assay type: in vivo, monocotyledonous and dicotyledonous weeds; settings: application rate of 2 kg and less of active substance per hectare; treated at three-leaf stage; scored visually after about 3 to 4 weeks by comparison with untreated controls
Description: 2. Post-Emergence Effect on Weeds
Seeds or rhizome pieces of monocotyledonous and dicotyledonous weeds were placed in sandy loam soil in plastic pots, covered with soil and grown in a greenhouse under good growth conditions. Three weeks after sowing, the test plants were treated at the three-leaf stage. The compounds according to the invention which were formulated as wettable powders or emulsion concentrates were sprayed, at various dosages, onto the green parts of the plants at an application rate of 600 to 800 l of water/ha (converted). After the test plants had remained in the greenhouse for about 3 to 4 weeks under ideal growth conditions, the effect of the preparations was scored visually by comparison with untreated controls. The agents according to the invention also have good herbicidal activity post-emergence against a broad spectrum of economically important weed grasses and broad-leafed weeds.

melting point: 116 to 117 °C
SMILES: Cn1nc(C(F)(F)F)cc1Oc1cc(C#N)cc(-n2ccc(C(F)(F)F)n2)c1 [Chemical Example 5, 3-(1-Methyl-3-trifluoromethylpyrazol-5-yloxy)-5-(3-trifluoromethylpyrazol-1-yl)benzonitrile]

SMILES: N#Cc1cc(C#N)cc(Oc2ccnc(C(F)(F)F)c2)c1 [Example 1140d]
herbicidal activity against harmful plants pre-emergence [1]: very good herbicidal activity
herbicidal activity against harmful plants post-emergence [2]: very good herbicidal activity

SMILES: N#Cc1cc(Oc2ccnc(C(F)(F)F)c2)cc(Oc2ccnc(C(F)(F)F)c2)c1 [Example 73d]
herbicidal activity against harmful plants pre-emergence [1]: very good herbicidal activity
herbicidal activity against harmful plants post-emergence [2]: very good herbicidal activity

SMILES: CC(C)OCCOc1cc(C#N)cc(Oc2cc(C(F)(F)F)nn2C)c1 [Example 1169a]
herbicidal activity against harmful plants pre-emergence [1]: very good herbicidal activity
herbicidal activity against harmful plants post-emergence [2]: very good herbicidal activity

SMILES: Cn1nc(C(F)(F)F)cc1Oc1cc(C#N)cc(Oc2cc(C(F)(F)F)n(C)n2)c1 [Example 75a]
herbicidal activity against harmful plants pre-emergence [1]: very good herbicidal activity
herbicidal activity against harmful plants post-emergence [2]: very good herbicidal activity

SMILES: Cn1nc(C(F)(F)F)cc1Oc1cc(Oc2cc(C(F)(F)F)nn2C)cc(C(N)=O)c1 [Example 77a]
herbicidal activity against harmful plants pre-emergence [1]: very good herbicidal activity
herbicidal activity against harmful plants post-emergence [2]: very good herbicidal activity

SMILES: N#Cc1cc(Oc2csc(C(F)(F)F)c2)cc(Oc2csc(C(F)(F)F)c2)c1 [Example 74c]
herbicidal activity against harmful plants pre-emergence [1]: very good herbicidal activity
herbicidal activity against harmful plants post-emergence [2]: very good herbicidal activity

SMILES: Cn1nc(C(F)(F)F)cc1Oc1cc(C#N)cc(Oc2cccc(C(F)(F)F)c2)c1 [Example 62a]
herbicidal activity against harmful plants pre-emergence [1]: very good herbicidal activity
herbicidal activity against harmful plants post-emergence [2]: very good herbicidal activity

SMILES: N#Cc1cc(C#N)cc(Oc2csc(C(F)(F)F)c2)c1 [Example 1140c]
herbicidal activity against harmful plants pre-emergence [1]: very good herbicidal activity
herbicidal activity against harmful plants post-emergence [2]: very good herbicidal activity

SMILES: Cn1nc(C(F)(F)F)cc1Oc1cc(C#N)cc(Oc2cc(C(F)(F)F)nn2C)c1 [Example 76a]
herbicidal activity against harmful plants pre-emergence [1]: very good herbicidal activity
herbicidal activity against harmful plants post-emergence [2]: very good herbicidal activity

SMILES: N#Cc1cc(Oc2cccc(C(F)(F)F)c2)cc(Oc2cccc(C(F)(F)F)c2)c1 [Example 62b]
herbicidal activity against harmful plants pre-emergence [1]: very good herbicidal activity
herbicidal activity against harmful plants post-emergence [2]: very good herbicidal activity

SMILES: CCOCCOCCOc1cc(C#N)cc(Oc2cc(C(F)(F)F)nn2C)c1 [Example 1171a]
herbicidal activity against harmful plants pre-emergence [1]: very good herbicidal activity
herbicidal activity against harmful plants post-emergence [2]: very good herbicidal activity

SMILES: Cn1nc(C(F)(F)F)cc1Oc1cc(F)cc([N+](=O)[O-])c1 [Example 1156a]
herbicidal activity against harmful plants pre-emergence [1]: very good herbicidal activity
herbicidal activity against harmful plants post-emergence [2]: very good herbicidal activity

SMILES: N#Cc1cc(F)cc(Oc2csc(C(F)(F)F)c2)c1 [Example 1136c]
herbicidal activity against harmful plants pre-emergence [1]: very good herbicidal activity
herbicidal activity against harmful plants post-emergence [2]: very good herbicidal activity

SMILES: Cn1nc(C(F)(F)F)cc1Oc1cc(Oc2cc(C(F)(F)F)nn2C)cc([N+](=O)[O-])c1 [Example 397a]
herbicidal activity against harmful plants pre-emergence [1]: very good herbicidal activity
herbicidal activity against harmful plants post-emergence [2]: very good herbicidal activity

melting point: 84 °C
SMILES: Cn1nc(C(F)(F)F)cc1Oc1cc(F)cc(C#N)c1 [Chemical Example 2, 3-Fluoro-5-(1-methyl-3-trifluoromethylpyrazol-5-yloxy)benzonitrile]

SMILES: Cn1nc(C(F)(F)F)cc1Oc1cc(C#N)cc(C#N)c1 [Example 1140a]
herbicidal activity against harmful plants pre-emergence [1]: very good herbicidal activity
herbicidal activity against harmful plants post-emergence [2]: very good herbicidal activity

melting point: 139 °C
SMILES: Cn1nc(C(F)(F)F)cc1Oc1cc(C#N)cc(Oc2cc(C(F)(F)F)nn2C)c1 [Chemical Example 1, 3,5-Bis-(1-methyl-3-trifluoromethylpyrazol-5-yloxy)benzonitrile]

SMILES: Cn1nc(C(F)(F)F)cc1Oc1cc(C#N)cc(OCC2CCCO2)c1 (stereo not shown) [Example 1180a]
herbicidal activity against harmful plants pre-emergence [1]: very good herbicidal activity
herbicidal activity against harmful plants post-emergence [2]: very good herbicidal activity

SMILES: COCCCOc1cc(C#N)cc(Oc2cc(C(F)(F)F)nn2C)c1 [Example 1177a]
herbicidal activity against harmful plants pre-emergence [1]: very good herbicidal activity
herbicidal activity against harmful plants post-emergence [2]: very good herbicidal activity

SMILES: Cn1nc(C(F)(F)F)cc1Oc1cc(C#N)cc(-n2ccc(C(F)(F)F)n2)c1 [Example 1161a]
herbicidal activity against harmful plants pre-emergence [1]: very good herbicidal activity
herbicidal activity against harmful plants post-emergence [2]: very good herbicidal activity

SMILES: Cn1nc(C(F)(F)F)cc1Oc1cc(C#N)cc(OCC2COC(C)(C)O2)c1 (stereo not shown) [Example 1182a]
herbicidal activity against harmful plants pre-emergence [1]: very good herbicidal activity
herbicidal activity against harmful plants post-emergence [2]: very good herbicidal activity

SMILES: Cn1nc(C(F)(F)F)cc1Oc1cc(F)cc(C#N)c1 [Example 1136a]
herbicidal activity against harmful plants pre-emergence [1]: very good herbicidal activity
herbicidal activity against harmful plants post-emergence [2]: very good herbicidal activity
